Patent US20020193374A1, “Reagents and methods for the diagnosis of CMV dissemination” (priority 2000, published 2002)

How the values were obtained:
[1] = biological target: T1, US28 (Human cytomegalovirus, UniProt P69332); experiment: cytoplasmic calcium mobilization in US28-293 cells; format: cell-based, human cytomegalovirus (CMV); parameters: expressed in transfected cells; host or cells: human 293 cells (US28-293 cells); conditions: compound added before fractalkine (FIG. 2)
Procedure: For each test, 1×10^6 cells were incubated at 37° C. in the cuvette of a PTI spectrometer, and the ratio of 410/490 nm emission plotted over time (typically 2-3 minutes), with compounds added at 5 seconds, followed by fractalkine at 60 seconds. […] Compounds which inhibited fractalkine binding were tested in this assay for the effects on Ca^2+ in this system.
S-(−)-IBZM (from the RBI division of Sigma Chemical Co., St. Louis, Mo., USA, Catalog No. I-139) was evaluated in the assays described in Examples 1 and 2. The IC50 value was 0.6 μM.

[2] = biological target: T1, US28; experiment: reversibility of binding to US28, competition assay with fractalkine; parameters: a mouse cell line stably expressing transfected US28 cDNA under the control of a CMV promoter; expressed in transfected cells; species or system human cytomegalovirus (CMV); conditions: pre-incubated with US28 expressing cells at 0-10 μg/mL, removed by competition with fractalkine (FIG. 3)
Procedure: FIG. 3 illustrates the reversibility of IBZM binding to US28. In this figure, IBZM is pre-incubated with US28 expressing cells (at concentrations of 0-10 μg/mL) and removed by competition with fractalkine.
In this assay, IBZM is pre-incubated with US28 expressing cells (at concentrations of 0-10 μg/mL) and removed by competition with fractalkine (see FIG. 3).

[3] = biological target: T1, US28; experiment: inhibition of 125I-fractalkine binding to US28 expressing cells; parameters: a mouse cell line stably expressing transfected US28 cDNA under the control of a CMV promoter; expressed in transfected cells; species or system human cytomegalovirus (CMV)
Procedure: The US28 expressing cells used in most assays consist of a mouse cell line stably expressing transfected US28 cDNA under the control of a CMV promoter. These cells were cultured in IMDM-5% FBS, and harvested when the concentration was between 0.5-1.0×10^6 cells/mL. Some assays were performed with adherent human 293 cells (US28-293 cells) or membranes. The cells were centrifuged and resuspended in assay buffer (20 mM HEPES, 140 mM NaCl, 1 mM CaCl2, 5 mM MgCl2, and with 0.2% bovine serum albumin) to a concentration of 5.6×10^6 cells/mL. Using the Multi-Probe automated system, set up with 8 assay plates at a time, first 0.09 mL of cells was added to the assay plates containing the compounds. The final concentration of the compounds was 5 μg/mL each (1 μg/mL Comgenex). Then 0.09 mL of ^125I-fractalkine diluted in assay buffer (final concentration ˜[…], with ˜30,000 cpm per well) was added, the plates sealed and incubated for approximately 3 hours at 4 degrees C. on a shaker platform. The assay plates were harvested using Packard filter plates, pre-soaked in PEI solution, on the vacuum harvest apparatus. Scintillation fluid (35 μL) was added to all wells, the plates were sealed and counted in a Top Count scintillation counter. […]
S-(−)-IBZM (from the RBI division of Sigma Chemical Co., St. Louis, Mo., USA, Catalog No. I-139) was evaluated in the assays described in Examples 1 and 2. […]

[4] = tested on: chemokine receptors; experiment: binding specificity among chemokine receptors tested; conditions: all chemokine receptors tested

T1 sequence (P69332 whole entry): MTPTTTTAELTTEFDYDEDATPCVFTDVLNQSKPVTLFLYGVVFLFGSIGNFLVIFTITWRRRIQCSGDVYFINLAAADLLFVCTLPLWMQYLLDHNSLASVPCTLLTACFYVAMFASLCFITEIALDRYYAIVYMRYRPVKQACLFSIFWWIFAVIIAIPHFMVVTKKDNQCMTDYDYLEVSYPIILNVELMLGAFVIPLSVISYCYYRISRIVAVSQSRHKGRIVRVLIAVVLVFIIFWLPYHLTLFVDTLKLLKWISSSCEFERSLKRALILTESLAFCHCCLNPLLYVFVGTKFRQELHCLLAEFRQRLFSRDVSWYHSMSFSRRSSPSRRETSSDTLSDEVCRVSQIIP

SMILES: CCN1CCC[C@H]1CNC(=O)c1c(OC)ccc(I)c1O [IBZM, S(−)-3-Iodo-2-hydroxy-6-methoxy-N[(1-ethyl-2-pyrrolidinyl)methyl]benzamide]
- mode of action in calcium mobilization [1]: competitive agonist
- reversibility of binding to US28 [2]: reversible
- IC50 [3]: 600 nM
- specificity of binding among chemokine receptors [4]: bind specifically to US28
